Results on one molecule are retold here after paper PMC5459853, “Cathepsin S inhibition combines control of systemic and peripheral pathomechanisms of autoimmune tissue injury” (Scientific Reports, 2017).

Broadly, the IC50 is the concentration needed to halve the response being measured.

One data set deals with Human Cat-S (Homo sapiens, UniProt P25774). Put plainly: Enzymatic isoform-selectivity assay, human Cat-S. To be noted: read-out: apparent IC50, human Cat-S. It is filed as biochemical. As for the experimental part:
(§1) RO5459072 was provided by F. Hoffmann-La Roche, Ltd., Basel, Switzerland. It is a competitive inhibitor of the active site of Cat-S and its nitrile function allows covalent reversible inhibition of Cat-S. The synthesis of RO5459072 has been described in WO 2010121918 and WO 2013068434. Recombinant cathepsins were produced in-house or were purchased from commercial vendors. Initial enzymatic assays to determine isoform-selectivity in vitro were performed as previously described, [23]. […] For this the Cat-S-dependent hydrolysis of the fluorogenic substrate Z-Phe-Arg-AMC (Sigma Aldrich) was followed at various inhibitor concentrations. The active fraction of Cat-S was detemined as 70% with a HPLC assay measuring modification of Cat-S with the covalent inhibitor LHVS. The buffer (100 mM potassium phosphate, 50 mM NaCl, 5 mM EDTA, 5 mM TCEP, pH 6) was thoroughly degassed prior to perfoming measurements to prevent oxidation of the catalytic cystein residue by dissolved oxygen. For the Ki-determination the substrate was employed at 10 µM = KM. All kinetic measurements were performad on a SFM-3000 stopped-flow instrument (Bio-Logic Science Instruments) and data were analyzed with GraphPad Prism v5.

In a further data set the target is Human Cat-V (Homo sapiens, UniProt O60911). As to the kind of experiment: Enzymatic isoform-selectivity assay, Cat-V. It is filed as biochemical. To be noted: read-out: apparent IC50, Cat V. The method, then: as §1
The target in a further data set is Human Cat-B (Homo sapiens, UniProt P07858). Put plainly: Enzymatic isoform-selectivity assay, Cat-B. It is filed as biochemical. The method, then:
as §1

The target of another data set is Human Cat-L (Homo sapiens, UniProt P07711). Put plainly: Enzymatic isoform-selectivity assay, Cat-L. It counts as biochemical. The method, then:
as §1

Data set [1] can be described thus: Acute in vivo pharmacodynamics: splenic p10 induction after oral gavage. Also noted: species or system BALB/c mice. To be noted: BALB/c, mouse, plasma; oral gavage 1 mg/kg; read-out: plasma concentration of the inhibitor at maximal p10 induction. The method, then: (§2) For the determination of in-vivo enzyme inhibition activity of Cat-S by RO5459072 BALB/c mice were used. After oral dosing of 0.1 mg/kg to 100 mg/kg of RO5459072, mice were sacrificed after 7 hours and spleens harvested. Invariant chain was quantified by western blot from mouse splenocyte supernatants loaded onto 10% SDS-PAGE gel. Upon transfer onto a nitrocellulose membrane rabbit anti-CD74 (BD Biosciences) was used.
(§3) Supplementary figure 1. Biochemical and pharmacological profile of R05459072. (A) Upregulation of invariant chain p10 levels in human B-cells was estimated by p10 ELISA, upon treatment with increasing concentration of RO5459072. […]
(§4) upregulation in B-cells derived from 6 healthy volunteers. (B) Determination of KM for the fluorogenic substrate Z-Phe-Arg-AMC. (C) Progress curves of hydrolysis of 10 µM Z-Phe-Arg-AMC by 10 nM Cat-S in the presence of no (black dots) or increasing concentration of RO5459072. A linear equation was fitted to the data to determine the slope (solid lines). […]
(§5) the residuals of the fit to the data. (D) Secondary plot of the slopes from panel B as function of RO5459072 concentration (dots with color coding from panel B). The Morrison equation was […]
(§6) active Cat-S converged to [E]0 = 6.9 nM). The dashed red lines indicate the 95 % confidence intervals of the fit to the data. (E) Pharmacodynamics of R05459072 was determined in C57Bl6 mice with increasing amounts of compound as single dose. Plasma levels of compounds were correlated to the upregulation of p10 in spleenocytes.
(§7) Supplementary figure 2. FACS gating strategies used for the different splenic immune cell populations. (A-C) Activated dendritic cells CD11c+CD11b+MHC-II, (D-F) activated macrophages CD11c+F480+MHC-II and (G-H) plasma cells CD138+κ-light chain+
(§8) Supplementary figure 3. Plasma IgG isotypes in MRL-(Fas)lpr mice. Plasma levels of IgG1 (A), IgG2a (B), and IgG2b (C) were determined by ELISA at different time points from the initiation (week 11) to the end of treatment (week 19). Data are expressed as means ± SEM (n=8 to 10 in […]

Data set [2] addresses T1, Cat-S (splenic p10 induction) (Mus musculus, UniProt O70370).
T1 construct: from tissue; host or cells: mouse spleen / splenocytes after oral dosing
Described as above. Also noted: species or system BALB/c mice. The method, then: as §2, §3, §4, §5, §6, §7, §8

The conditions of data set [3]: extensive screening studies in mice, rats, monkeys and humans preceding clinical trial NCT01701985; cited from earlier work.

Chain of Human Cat-L (P07711 114-333): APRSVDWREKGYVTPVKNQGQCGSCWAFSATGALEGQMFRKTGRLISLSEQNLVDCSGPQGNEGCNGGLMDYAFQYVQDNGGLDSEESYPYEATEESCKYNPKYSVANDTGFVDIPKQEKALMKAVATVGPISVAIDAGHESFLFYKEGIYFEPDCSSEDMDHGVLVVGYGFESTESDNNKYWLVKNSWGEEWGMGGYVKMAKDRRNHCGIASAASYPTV
Chain of Human Cat-S (P25774 115-331): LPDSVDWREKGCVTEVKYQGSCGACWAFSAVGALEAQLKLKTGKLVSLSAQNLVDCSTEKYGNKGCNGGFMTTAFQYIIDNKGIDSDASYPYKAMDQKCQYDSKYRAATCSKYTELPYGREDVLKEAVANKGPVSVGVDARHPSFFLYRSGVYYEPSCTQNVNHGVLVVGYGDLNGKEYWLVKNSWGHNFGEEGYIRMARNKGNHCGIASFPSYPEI
Chain of Human Cat-V (O60911 114-334): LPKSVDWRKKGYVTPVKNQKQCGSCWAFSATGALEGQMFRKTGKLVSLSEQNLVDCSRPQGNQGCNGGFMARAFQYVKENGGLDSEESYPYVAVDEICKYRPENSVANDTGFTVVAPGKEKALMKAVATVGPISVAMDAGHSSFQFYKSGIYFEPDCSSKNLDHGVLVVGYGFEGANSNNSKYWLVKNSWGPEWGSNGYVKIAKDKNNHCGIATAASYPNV

Turning to `Cn1cc(-c2ccc(S(=O)(=O)[C@@H]3C[C@@H](C(=O)NC4(C#N)CC4)N(C(=O)C4(C(F)(F)F)CC4)C3)c(C(F)(F)F)c2)cn1` [RO5459072], the IC50 at Human Cat-S is 0.1 nM; on Human Cat-V, 700 nM; at Human Cat-B it was greater than 1000 nM; on Human Cat-L, greater than 1000 nM. Besides, the “IC50, Human Cat-B” value against Human Cat-B is “No sub-micro molar inhibition”. Moreover, the “IC50, Human Cat-L” value against Human Cat-L is listed as “No sub-micro molar inhibition”. Also, in data set [1], the concentration at 7 h was 17 nM. The “dose of maximal splenic p10 induction” value in data set [2] (oral gavage, single doses 0.1–100 mg/kg, spleens after 7 hours) is reported as 1 mg/kg. Further, in data set [2] (single oral dose, mice, read-out: p10/li in vivo EC50 (plasma level vs p10 upregulation in splenocytes)), the EC50 was determined as 17 nM. Further, in data set [3], the drug safety signals result was “did not show any signals regarding drug safety”.
